Data as given in patent US8575168B2, “Compounds and compositions as modulators of GPR119 activity” (IRM LLC, priority 2009, dated 2013).

The molecules below were run against T1, human GPR119 (Homo sapiens, UniProt Q8TDV5) (assay: Cyclic AMP Assay in Stable Cell Line (HTRF)). Conditions: Flp-In-CHO-hGPR119 cells, intracellular cAMP, 30 minutes at 37° C., 1 mM IBMX.
T1 construct: expressed in transfected cells
T1 sequence (Q8TDV5 1-335): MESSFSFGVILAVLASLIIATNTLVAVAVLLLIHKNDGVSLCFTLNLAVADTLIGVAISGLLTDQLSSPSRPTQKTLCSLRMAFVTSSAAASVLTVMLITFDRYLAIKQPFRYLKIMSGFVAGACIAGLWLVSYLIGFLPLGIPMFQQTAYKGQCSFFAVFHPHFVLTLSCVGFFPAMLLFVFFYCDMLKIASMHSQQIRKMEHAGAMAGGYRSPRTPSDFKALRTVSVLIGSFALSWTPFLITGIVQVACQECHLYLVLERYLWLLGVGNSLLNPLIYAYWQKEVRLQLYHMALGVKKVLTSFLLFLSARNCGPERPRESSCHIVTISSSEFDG
Format: cell-based
Procedure: Flp-In-CHO cells (Invitrogen, Cat. #R758-07) are maintained in Ham's F12 medium supplemented with 10% fetal bovine serum, 1% antibiotic mixture and 2 mM L-glutamine. The cells are transfected with a DNA mixture containing human GPR119 in pcDNA5/FRT vector and the pOG44 vector (1:9) using Fugene6 (Roche), according to the manufacturer's instruction. After 48 hours, the medium is changed to medium supplemented with 400 μg/ml hygromycin B to initiate the selection of stably transfected cells.
To test the activity of compounds of the invention, Flp-In-CHO-hGPR119 cells are harvested and resuspended in DMEM plus 3% lipid-depleted fetal bovine serum. Forth μl of cells are plated in 384 well plates at a density of 15,000 cells/well. IBMX (3-isobutyl-1-methyl-xanthine) is added to the cells to a final concentration of 1 mM, followed by the addition of 500 nl of the compound to be tested. The cells are incubated at 37° C. for 30 minutes. Equal volume (20 μl) of the HTRF reagents, anti-cAMP-Cryptate and cAMP-XL665, are added to the cells. The plates are incubated at room temperature for 1 hour and read on a HTRF reader according to the manufacturer's instruction.

| EC50 | SMILES |
| --- | --- |
| 131 nM | CS(=O)(=O)N1CCC(c2cc(F)c(OC3CN(Cc4nc(C5CC5)no4)C3)c(F)c2)CC1 [Example B10] |
| 397 nM | CC(C)c1nc(CN2CC(Oc3c(F)cc(C4CCN(S(C)(=O)=O)CC4)cc3F)C2)no1 [Example B11] |
| 55 nM | CS(=O)(=O)N1CCC(c2cc(F)c(OC3CN(Cc4nc(C(F)(F)F)no4)C3)c(F)c2)CC1 [Example B12] |
| 108 nM | CC(F)(F)c1noc(CN2CC(Oc3c(F)cc(C4CCN(S(C)(=O)=O)CC4)cc3F)C2)n1 [Example B13] |
| 70 nM | Cn1nc(C(F)(F)F)cc1CN1CCC(Oc2c(F)cc(C3CCN(S(C)(=O)=O)CC3)cc2F)CC1 [Example B14] |
| 97 nM | Cn1nc(C(F)(F)F)cc1CN1CC(Oc2c(F)cc(C3CCN(S(C)(=O)=O)CC3)cc2F)C1 [Example B15] |
| 9 nM | CS(=O)(=O)N1CCC(c2cc(F)c(OC3CCN(Cc4nc(C(F)(F)F)cs4)CC3)c(F)c2)CC1 [Example B16] |
| 74 nM | CS(=O)(=O)N1CCC(c2cc(F)c(OC3CN(Cc4nc(C(F)(F)F)cs4)C3)c(F)c2)CC1 [Example B17] |
| 52 nM | CS(=O)(=O)N1CCC(c2cc(F)c(OC3CCN(Cc4csc(C(F)(F)F)n4)CC3)c(F)c2)CC1 [Example B18] |
| 448 nM | CS(=O)(=O)N1CCC(c2cc(F)c(OC3CN(Cc4csc(C(F)(F)F)n4)C3)c(F)c2)CC1 [Example B19] |
| 208 nM | Cn1nc(C(F)(F)F)nc1CN1CCC(Oc2c(F)cc(C3CCN(S(C)(=O)=O)CC3)cc2F)CC1 [Example B20] |
| 244 nM | Cn1nc(C(F)(F)F)nc1CN1CC(Oc2c(F)cc(C3CCN(S(C)(=O)=O)CC3)cc2F)C1 [Example B21] |
| 443 nM | CS(=O)(=O)N1CCC(c2cc(F)c(OC3CCN(Cc4noc(C(F)(F)F)n4)CC3)c(F)c2)CC1 [Example B22] |
| 210 nM | CS(=O)(=O)N1CCC(c2cc(F)c(OC3CN(Cc4noc(C(F)(F)F)n4)C3)c(F)c2)CC1 [Example B23] |
| 6 nM | CC(C)c1noc(CN2CCC(Oc3c(F)cc(C4CCN(S(C)(=O)=O)CC4)cc3F)CC2)n1 [Example B24] |
| 37 nM | CS(=O)(=O)N1CCC(c2ccc(OC3CCN(Cc4nc(C(F)(F)F)no4)CC3)cc2)CC1 [Example B26] |
| 11 nM | CS(=O)(=O)N1CCC(c2ccc(OC3CCN(Cc4nc(C(F)(F)F)no4)CC3)c(F)c2F)CC1 [Example B27] |
| 5 nM | CS(=O)(=O)N1CCC(c2cc(F)c(OC3CCN(Cc4nc(C(F)(F)F)no4)CC3)cc2F)CC1 [Example B28] |
| 50 nM | CS(=O)(=O)N1CCC(c2c(F)cc(OC3CCN(Cc4nc(C(F)(F)F)no4)CC3)cc2F)CC1 [Example B29] |
| 78 nM | CC(c1nc(C(F)(F)F)no1)N1CCC(Oc2c(F)cc(C3CCN(S(C)(=O)=O)CC3)cc2F)CC1 (stereo not drawn) [Example B30] |
| 144 nM | CS(=O)(=O)N1CCC(c2cc(F)c(OC3CCN(Cc4ccc(C(F)(F)F)cc4)C3)c(F)c2)CC1 (stereo not drawn) [Example C1, 4-(3,5-Difluoro-4-(1-(4-(trifluoromethyl)benzyl)pyrrolidin-3-yloxy)phenyl)-1-(methylsulfonyl)piperidine] |
| 125 nM | CS(=O)(=O)N1CCC(c2cc(F)c(OC3CCCN(Cc4ccc(C(F)(F)F)cc4)CC3)c(F)c2)CC1 (stereo not drawn) [Example C2] |
| 644 nM | CC1(Oc2c(F)cc(C3CCN(S(C)(=O)=O)CC3)cc2F)CN(Cc2ccc(C(F)(F)F)cc2)C1 [Example C3] |
| 199 nM | CS(=O)(=O)N1CCC(F)(c2cc(F)c(OC3CCN(Cc4nc(C(F)(F)F)no4)CC3)c(F)c2)CC1 [Example D1, 5-((4-(2,6-difluoro-4-(4-fluoro-1-(methylsulfonyl)piperidin-4-yl)phenoxy)piperidin-1-yl)methyl)-3-(trifluoromethyl)-1,2,4-oxadiazole] |
